According to article PMC7534330, “UHPLC-MS/MS method for pharmacokinetic and bioavailability determination of five bioactive components in raw and various processed products of Polygala tenuifolia in rat plasma” (Pharmaceutical Biology, 2020):

Experiments:
[1] = Pharmacokinetics of five components in rat plasma after oral administration of RPT, LPT and HPT extracts (UHPLC-MS/MS); settings: male, SD, in vivo, 1.9 g/kg
Protocol: (§1) A Thermo Hypersil Gold C18 column (3.0 × 100 mm, i.d.; 3 μm) was used for chromatographic separation. An aqueous 10 mM ammonium acetate solution (A) and acetonitrile (B) were selected as the mobile phase components. The optimal gradient program involved the following steps: 5% B (0–1 min), changing to 85% B (1–3.5 min), 85% B (3.5–4.0 min), changing to 5% B (4.0–4.1 min) and 5% B (4.1–5.0 min). The flow rate was set to 0.4 mL/min, the autosampler was maintained at 4 °C and the injection volume was 5 μL.
(§2) UHPLC-MS/MS was conducted by an Applied Biosystems (AB) Sciex Exion LC system (Foster City, CA) connected to a 6500 + triple quad tandem mass spectrometer with an electrospray ionization source. All detection and quantifications were carried out in positive multiple reaction monitoring (MRM) mode. The optimized parameters were programmed as follows: ion source temperature, 500 °C; curtain gas pressure, 30 kPa; ion source gas 1 pressure, 55 kPa; ion source gas 2 pressure, 55 kPa; and ion spray voltage, […]. The chemical structures and ion mass spectra of targeted compounds are shown in Figure 1. The precursor ion and product ion were m/z 517.1 → 174.9 for A5, m/z 547.0 → 204.9 for A6, m/z 753.2 → 205.2 for DSS, m/z 681.3 → 443.3 for TFSA, m/z 236.8 → 103.2 for TMCA and m/z 136.9 → 92.9 for IS. All data were acquired by using AB Sciex Analyst software (version 1.6.3).
(§3) After thawing the frozen blood samples at room temperature, a 100 μL aliquot of plasma was spiked with 50 μL of the IS working solution in 2 mL EP tubes, and 750 μL of methanol was added into each of the tubes. Then, these tubes were mixed on a multi-tube Vortexer for 0.5 min before centrifugation at 11,800×g for 10 min. Finally, 200 μL of the obtained supernatant was transferred to a fresh autosampler vial, and then 5 μL of the sample was injected for analysis.
Male SD rats were randomly divided into four groups (n = 6 in each group), including the RPT group, LPT group, HPT group and control group. All oral administration samples were mixed with 0.5% CMC-Na (w/v) and then given to rats at a dose equivalent to 1.9 g/kg of RPT extract. The control group was orally treatment with equal volume of 0.5% CMC-Na solution. After a single administration, all blood samples were collected from the orbital vein into heparinized centrifuge tubes before administration (0 h) and at 0.083, 0.17, 0.25, 0.5, 0.75, 1, 1.5, 2, 3, 5, 8 and 12 h after administration and then centrifuged at 4 °C and 11,800×g for 10 min. The separated supernatant samples were preserved at −80 °C until they were measured.
(§4) The elementary pharmacokinetic parameters of plasma samples were analyzed by DAS 2.0 pharmacokinetic software. One-way analysis of variance (ANOVA) was used for statistical comparison for pharmacokinetic and interaction studies. A p-value < 0.05 indicated a significant difference. The main parameters considered were as follows: AUC0–∞ (the area under the blood concentration-time curve from zero to infinity initial plasma concentration), MRT (the mean residence time), Cmax (peak plasma concentration) and Tmax (time to reach Cmax for oral dose), t1/2 (elimination half-life) (He et al. [2015]). The absolute bioavailability (F) was evaluated as follows: F(%)=(AUCoral×Dosei.v.)/(AUCi.v.×Doseoral)×100%

[2] = Stability of the five analytes in rat plasma; format: in vitro ADME; settings: rat; for Long-term stability, Mean: 4 weeks; for Short-term stability, Mean: 5 h; for Auto-sampler stability, Mean: 24 h
Protocol: Stock standards of A5, A6, DSS, TFSA, TMCA and IS were prepared in methanol at a concentration of 1 mg/mL. A series of working standard solutions of the targeted compounds ranging from 10 to 20,000 ng/mL and the IS solution at 600 ng/mL were prepared by diluting the stock solutions with methanol and maintained at −20 °C. Calibration standards were freshly prepared by spiking the series of standard solutions (30 μL) including the IS into blank rat plasma (270 μL) to achieve concentrations of 1, 10, 50, 100, 500, 1000, 1600 and 2000 ng/mL. Quality control (QC) samples were prepared independently at low (2 ng/mL), medium (600 ng/mL) and high (1600 ng/mL) concentrations following the same method for the five compounds.
Stability studies included short-term stability (5 h at room temperature, i.e. 25 °C), freeze-thaw stability (three consecutive freeze-thaw cycles from −20 °C to room temperature), autosampler stability (24 h storage in the autosampler at 4 °C) and long-term stability (4 weeks storage at −80 °C). The stability data of all analytes are presented in Supplementary Table S4.

[3] = Pharmacokinetics and absolute bioavailability of five compounds after oral and i.v. administration (UHPLC-MS/MS); format: in vivo; settings: rat, in vivo
Protocol: as §1, §2, §3
The SD rats were randomly divided into oral and i.v. groups for A5, A6, DSS, TFSA and TMCA administration (n = 6 in each group). The oral doses of A5, A6, DSS, TFSA and TMCA groups were 7.40, 11.60, 16.00, 50.00 and 3.11 mg/kg, respectively, and the corresponding i.v. doses were 0.74, 1.16, 1.60, 5.00 and 0.31 mg/kg, respectively. Blood samples were collected from the suborbital vein into heparinized tubes before and 0, 0.083, 0.17, 0.25, 0.5, 1, 2, 3, 5 and 8 h after administration. The treatment method of blood samples was the same as that mentioned above.
as §4

With COc1cc(/C=C/C(=O)O[C@H]2[C@H](O)[C@@H](CO)O[C@@]2(CO)O[C@H]2O[C@H](COC(=O)c3ccc(O)cc3)[C@@H](O)[C@H](O)[C@H]2O)cc(OC)c1OC [TFSA, tenuifoliside A] the AUC(0-t) ([1]; AUC0-t) was 284 ± 185 ng·h/mL, the AUC(0-inf) ([1]; AUC0-∞) was 297 ± 194 ng·h/mL and the Cmax ([1]; Cmax) was 107 ± 47.7 ng/mL. The MRT last ([1]; MRT0-t) was 175 ± 34.8 min, the “Freeze-thaw stability, Mean” value ([2]; 2 ng/mL) was 96.5% and the “Freeze-thaw stability, Mean” value ([2]; 600 ng/mL) was 96.3%. For the same compound, the “Freeze-thaw stability, Mean” value ([2]; 1600 ng/mL) was 97.4%, the “Long-term stability, Mean” value ([2]; 2 ng/mL) was 89.9% and the “Long-term stability, Mean” value ([2]; 600 ng/mL) was 96.3%. For the same compound, the “Long-term stability, Mean” value ([2]; 1600 ng/mL) was 96.2%, the “Short-term stability, Mean” value ([2]; 2 ng/mL) was 97.6% and the “Short-term stability, Mean” value ([2]; 600 ng/mL) was 97.9%. The “Short-term stability, Mean” value ([2]; 1600 ng/mL) was 98.5%, the “Auto-sampler stability, Mean” value ([2]; 2 ng/mL) was 96.6% and the “Auto-sampler stability, Mean” value ([2]; 600 ng/mL) was 98.2%. The “Auto-sampler stability, Mean” value ([2]; 1600 ng/mL) was 96.3%, the “AUCΔ0-t (dose-normalized)” value ([3]; SD, iv) was 163.79 ± 11.83 ng·h/mL and the “AUCΔ0-∞ (dose-normalized)” value ([3]; SD, iv) was 163.80 ± 11.83 ng·h/mL. The “CΔmax (dose-normalized)” value ([3]; SD, iv) was 375.56 ± 13.65 ng/mL, the half-life ([3]; SD, iv) was 29.4 ± 3.6 min and the “AUCΔ0-t (dose-normalized)” value ([3]; SD, po) was 1.92 ± 0.85 ng·h/mL. For the same compound, the “AUCΔ0-∞ (dose-normalized)” value ([3]; SD, po) was 1.92 ± 0.85 ng·h/mL, the “CΔmax (dose-normalized)” value ([3]; SD, po) was 1.88 ± 0.76 ng/mL and the half-life ([3]; SD, po) was 55.2 ± 12.6 min. The Tmax ([3]; SD, po, Tmax) was roughly 11.4 min and the “F, absolute bioavailability” value [3] was 1.17 % of dose.
